Data from patent publication US20260048051A1, “TREATMENT OF INFLAMMATORY BOWEL DISEASE” (Atomwise Inc., priority 2024, published 2026).

Target: T1, TYK2-JH2 (Homo sapiens, UniProt P29597)
T1 construct: TYK JH2 enzyme mix (ChemPartner: CP20210818A-BV); purchased ChemPartner CP20210818A-BV
Experiment: TYK2-JH2 HTRF binding assay (ligand efficiency)
Conditions: calculated from binding-assay IC50 (Equation 1)
Method: The following example describes the TYK2-JH2 HTRF binding assay used to determine the ligand efficiency of the TYK2 inhibitors.
To calculate ligand efficiency, Equation 1 is applied: […]
in which IC50 comes from the binding assay used to determine compound potency.
TYK JH2 enzyme mix (ChemPartner: CP20210818A-BV), tracer (ChemPartner: CP-0029472-051) and mAb Anti-6HIS Tb cryptate Gold (Cisbio: Cat No. 61HI2TLA) mix were prepared in assay buffer (10 mM MgCl2, 20 mM HEPES pH 7.5, 0.01% Triton X-100, 1 mM DTT). Compounds diluted in DMSO (Final Concentrations 0.1 to 0.000005 [μM]) and enzyme mix (0.5 nM Final Concentration) were added to 384 well plates, briefly centrifuged and incubated at room temperature for 10 minutes. After incubation, tracer mix (Tracer-35 nM final concentration); (MAb Anti-6HIS Tb cryptate Gold-0.5× final)) was added, briefly centrifuged then incubate at room temperature 60 minutes. After incubation, plates were read by Envision TR-FRET (Ex340/Em495/520) protocol (PerkinElmer-Envision 2104 multilabel plate reader).

T1 sequence (P29597 589-875 limits assumed): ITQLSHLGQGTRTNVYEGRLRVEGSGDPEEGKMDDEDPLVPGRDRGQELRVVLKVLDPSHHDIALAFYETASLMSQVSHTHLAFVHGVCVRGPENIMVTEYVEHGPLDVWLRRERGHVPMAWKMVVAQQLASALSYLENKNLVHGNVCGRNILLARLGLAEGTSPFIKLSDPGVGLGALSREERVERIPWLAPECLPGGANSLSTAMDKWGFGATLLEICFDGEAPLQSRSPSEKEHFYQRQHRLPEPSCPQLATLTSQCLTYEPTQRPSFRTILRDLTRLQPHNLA

SMILES | Ligand Efficiency
CS(=O)(=O)c1cccnc1Nc1cc(Nc2ccc(C(=O)NC3CC(F)(F)C3)cn2)ncn1 [Compound 38, N-(3,3-difluorocyclobutyl)-6-(6-(3-(methylsulfonyl)pyridine-2-ylamino)pyrimidin-4-ylamino)nicotinamide] | ††† (†††: >0.39)
Cc1cccnc1Nc1cc(Nc2ccccc2C(N)=O)ncn1 [Compound 68, 2-((6-((3-methylpyridin-2-yl)amino)pyrimidin-4-yl)amino) benzamide] | ††† (†††: >0.39)
Cc1cc(Nc2cc(Nc3ncccc3S(C)(=O)=O)ncn2)ncc1NC1(C)COC1 [Compound 23, N^4-(4-methyl-5-((3-methyloxetan-3-yl)amino)pyridin-2-yl)-N-(3-(methylsulfonyl)pyridin-2-yl)pyrimidine-4,6-diamine] | ††† (†††: >0.39)
C[C@H]1CN(C2CC2)CCN1c1ccc(Nc2cc(Nc3ncccc3S(C)(=O)=O)ncn2)nc1 [Compound 8, (S)—N^4-(5-(4-cyclopropyl-2-methylpiperazin-1-yl)pyridin-2-yl)-N^6-(3-(methylsulfonyl)pyridin-2-yl)pyrimidine-4,6-diamine] | ††† (†††: >0.39)
Cc1cccc(Nc2cc(Nc3ncccc3C(N)=O)ncn2)n1 [Compound 52, 2-((6-((6-methylpyridin-2-yl)amino)pyrimidin-4-yl)amino) nicotinamide] | ††† (†††: >0.39)
Cc1cccc(Nc2cc(Nc3ccccc3C(N)=O)nc(N)n2)n1 [Compound 55, 2-((2-amino-6-((6-methylpyridin-2-yl)amino)pyrimidin-4-yl)amino)benzamide] | †† (††: 0.37-0.39)
C[C@@H](c1ccc(Nc2cc(Nc3ncccc3S(C)(=O)=O)ncn2)nc1)N1C[C@H]2COC[C@H]2C1 [Compound 25, N^4-(3-(methylsulfonyl)pyridin-2-yl)-N^6-(5-(1-((3aR,6aS)-tetrahydro-1H-furo[3,4-c]pyrrol-5(3H)-yl)ethyl)pyridin-2-yl)pyrimidine-4,6-diamine] | ††† (†††: >0.39)
CS(=O)(=O)c1cccnc1Nc1cc(Nc2ccc(N3CCC4(CCO4)CC3)cn2)ncn1 [Compound 24, N^4-(5-(1-oxa-7-azaspiro[3.5]nonan-7-yl)pyridin-2-yl)-N^6-(3-(methylsulfonyl)pyridin-2-yl)pyrimidine-4,6-diamine] | †† (††: 0.37-0.39)
CS(=O)(=O)c1cccnc1Nc1cc(Nc2ccc([C@@H](N3CC4(COC4)C3)C(F)(F)F)cn2)ncn1 [Compound 16, (R)—N^4-(3-(methylsulfonyl)pyridin-2-yl)-N^6-(5-(2,2,2-trifluoro-1-(2-oxa-6-azaspiro[3.3]heptan-6-yl)ethyl)pyridin-2-yl)pyrimidine-4,6-diamine] | †† (††: 0.37-0.39)
Cc1ccnc(Nc2cc(Nc3ccccc3C(N)=O)ncn2)c1 [Compound 45, 2-((6-((4-methylpyridin-2-yl)amino)pyrimidin-4-yl)amino) benzamide] | ††† (†††: >0.39)
CS(=O)(=O)c1ccccc1Nc1cc(Nc2ccc(C(=O)NC3CCOC3)cn2)ncn1 (centres unmarked) [Compound 43, 6-(6-(2-(methylsulfonyl)phenylamino)pyrimidin-4-ylamino)-N-(tetrahydrofuran-3-yl)nicotinamide] | †† (††: 0.37-0.39)
Cc1cccc(Nc2cc(Nc3ccncc3C(N)=O)ncn2)n1 [Compound 51, 4-((6-((6-methylpyridin-2-yl)amino)pyrimidin-4-yl)amino) nicotinamide] | ††† (†††: >0.39)
CS(=O)(=O)c1cccnc1Nc1cc(Nc2ccc3c(n2)CC[C@@H]3N2CC3(COC3)C2)ncn1 [Compound 9, N^4-((5S)-5-(2-oxa-6-azaspiro[3.3]heptan-6-yl)-6,7-dihydro-5H-cyclopenta[b]pyridin-2-yl)-N^6-(3-(methylsulfonyl)pyridin-2-yl)pyrimidine-4,6-diamine] | ††† (†††: >0.39)
C[C@@H](c1ccc(Nc2cc(Nc3ncccc3S(C)(=O)=O)ncn2)nc1)N1CCCC12CCOCC2 [Compound 29, (S)—N^4-(5-(1-(8-oxa-1-azaspiro[4.5]decan-1-yl)ethyl)pyridin-2-yl)-N^6-(3-(methylsulfonyl)pyridin-2-yl)pyrimidine-4,6-diamine] | †† (††: 0.37-0.39)
CS(=O)(=O)c1ccccc1Nc1cc(Nc2ccc(N3CCOCC3)cn2)ncn1 [Compound 42, N^4-(2-(methylsulfonyl)phenyl)-N^6-(5-morpholinopyridin-2-yl) pyrimidine-4,6-diamine] | ††† (†††: >0.39)
CC(NC1CC(F)(F)C1)c1ccc(Nc2cc(Nc3ncccc3S(C)(=O)=O)ncn2)nc1 (centres unmarked) [Compound 35, N^4-(5-(1-(3,3-difluorocyclobutylamino)ethyl)pyridin-2-yl)-N^6-(3-(methylsulfonyl)pyridin-2-yl)pyrimidine-4,6-diamine] | ††† (†††: >0.39)
CC(c1ccc(Nc2cc(Nc3ncccc3S(C)(=O)=O)ncn2)nc1)N1CC2(CC(C(F)F)C2)C1 (centres unmarked) [Compound 34, N^4-(5-(1-(6-(difluoromethyl)-2-azaspiro[3.3]heptan-2-yl)ethyl)pyridin-2-yl)-N^6-(3-(methylsulfonyl)pyridin-2-yl)pyrimidine-4,6-diamine] | †† (††: 0.37-0.39)
CC(NC1COC1)c1ccc(Nc2cc(Nc3ccccc3S(C)(=O)=O)ncn2)nc1 (stereo in doubt) [Compound 40, (R)—N^4-(2-(methylsulfonyl)phenyl)-N^6-(5-(1-(oxetan-3-ylamino)ethyl)pyridin-2-yl)pyrimidine-4,6-diamine] | ††† (†††: >0.39)
Cc1cccc(Nc2cc(Nc3ccncc3S(C)(=O)=O)ncn2)n1 [Compound 60, N^4-(6-methylpyridin-2-yl)-N^6-(3-(methylsulfonyl)pyridin-4-yl) pyrimidine-4,6-diamine] | ††† (†††: >0.39)
CC(C)[C@@H](c1ccc(Nc2cc(Nc3ncccc3S(C)(=O)=O)ncn2)nc1)N1CC2(COC2)C1 [Compound 13, (S)—N^4-(5-(2-methyl-1-(2-oxa-6-azaspiro[3.3]heptan-6-yl)propyl)pyridine-2-yl)-N^6-(3-(methylsulfonyl)pyridin-2-yl)pyrimidine-4,6-diamine] | †† (††: 0.37-0.39)
CC(c1ccc(Nc2cc(Nc3ncccc3S(C)(=O)=O)ncn2)nc1)N1CC(F)C1 (centres unmarked) [Compound 22, N^4-(5-(1-(3-fluoroazetidin-1-yl)ethyl)pyridin-2-yl)-N^6-(3-(methylsulfonyl)pyridin-2-yl)pyrimidine-4,6-diamine] | ††† (†††: >0.39)
COc1cnc(Nc2cc(Nc3ccc([C@H](C)N4CC5(COC5)C4)cn3)ncn2)c(S(C)(=O)=O)c1 [Compound 3, (S)—N^4-(5-(1-(2-oxa-6-azaspiro[3.3]heptan-6-yl)ethyl)pyridine-2-yl)-N^6-(5-methoxy-3-(methylsulfonyl)pyridin-2-yl)pyrimidine-4,6-diamine] | †† (††: 0.37-0.39)
CS(=O)(=O)c1ccccc1Nc1cc(Nc2ccc(C(=O)NC3COC3)cn2)ncn1 [Compound 79, 6-((6-((2-(methylsulfonyl)phenyl)amino)pyrimidin-4-yl)amino)-N-(oxetan-3-yl)nicotinamide] | †† (††: 0.37-0.39)
Cc1cccc(Nc2cc(Nc3ccccc3S(C)(=O)=O)nc(N)n2)n1 [Compound 57, N^4-(6-methylpyridin-2-yl)-N^6-(2-(methylsulfonyl)phenyl)pyrimidine-2,4,6-triamine] | ††† (†††: >0.39)
COc1ccc(Nc2cc(NC(=O)C3CC3)ncn2)c(C(N)=O)c1 [Compound 70, 2-((6-(cyclopropanecarboxamido)pyrimidin-4-yl)amino)-5-methoxy benzamide] | ††† (†††: >0.39)
CS(=O)(=O)c1cccnc1Nc1cc(Nc2cccc(C(F)(F)F)n2)ncn1 [Compound 19, N^4-(3-(methylsulfonyl)pyridin-2-yl)-N^6-(6-(trifluoromethyl)pyridin-2-yl)pyrimidine-4,6-diamine] | ††† (†††: >0.39)
COc1ccnc(Nc2cc(Nc3ccc(C(C)N4CC5(COC5)C4)cn3)ncn2)c1S(C)(=O)=O (centres unmarked) [Compound 76, N^4-(5-(1-(2-oxa-6-azaspiro[3.3]heptan-6-yl)ethyl)pyridin-2-yl)-N^6-(4-methoxy-3-(methylsulfonyl)pyridin-2-yl)pyrimidine-4,6-diamine] | † (†: < 0.37)
Cc1nc(Nc2cc(Nc3ncccc3S(C)(=O)=O)ncn2)ccc1NC1(C)COC1 [Compound 6, N^4-(6-methyl-5-((3-methyloxetan-3-yl)amino)pyridin-2-yl)-N^6-(3-(methylsulfonyl)pyridin-2-yl)pyrimidine-4,6-diamine] | ††† (†††: >0.39)
CS(=O)(=O)c1cccnc1Nc1cc(Nc2ccc(NC3CC(F)(F)C3)cn2)ncn1 [Compound 37, N^4-(5-(3,3-difluorocyclobutylamino)pyridin-2-yl)-N^6-(3-(methylsulfonyl)pyridin-2-yl)pyrimidine-4,6-diamine] | ††† (†††: >0.39)
